Measured values reported in article PMC6556873, “Rapid Covalent-Probe Discovery by Electrophile-Fragment Screening” (Journal of the American Chemical Society, 2019).
Read-outs that look alike come from different tables or passages of the source.

What was measured:
BSA = target: T1, BSA (Bos taurus, UniProt P02769); parameters: Intact protein LC/MS covalent labelling, fragments in pools of five, 200 uM each, 4 °C; details: 24 h, 4 °C, pool of five; 200 µM; covalent
T1 construct: gene ALB

NUDT7 = target: T2, NUDT7 (Homo sapiens, UniProt P0C024); parameters: Intact protein LC/MS covalent labelling, fragments in pools of five, 200 uM each, 4 °C; details: 24 h, 4 °C, pool of five; 200 µM; covalent
T2 construct: residues 14-235, E. coli, pNIC28-Bsa4, N-terminal His6 tag removed by TEV, construct 26672 Da
T2 sequence (P0C024 14-235): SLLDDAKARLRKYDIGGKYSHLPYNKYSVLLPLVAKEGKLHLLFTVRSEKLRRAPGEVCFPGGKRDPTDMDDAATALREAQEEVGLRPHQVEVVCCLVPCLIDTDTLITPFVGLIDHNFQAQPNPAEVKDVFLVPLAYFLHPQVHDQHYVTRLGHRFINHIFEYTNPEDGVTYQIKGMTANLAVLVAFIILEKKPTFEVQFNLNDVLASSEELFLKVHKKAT

OTUB2 (OTUB2A) = target: T3, OTUB2 (OTUB2A) (Homo sapiens, UniProt Q96DC9); parameters: Intact protein LC/MS covalent labelling, fragments in pools of five, 200 uM each, 4 °C; details: 24 h, 4 °C, pool of five; 200 µM; covalent
T3 construct: full length residues 1-234, E. coli BL21(DE3)-R3, His tag removed by TEV, construct 27312 Da
T3 sequence (Q96DC9 1-234): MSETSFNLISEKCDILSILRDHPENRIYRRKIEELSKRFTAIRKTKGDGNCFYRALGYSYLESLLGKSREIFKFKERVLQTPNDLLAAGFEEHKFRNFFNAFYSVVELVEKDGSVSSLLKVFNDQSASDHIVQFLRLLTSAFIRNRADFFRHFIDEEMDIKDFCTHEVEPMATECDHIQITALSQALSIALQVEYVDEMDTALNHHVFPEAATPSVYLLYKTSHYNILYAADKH

PCAF = target: T4, PCAF (Homo sapiens, UniProt Q92831); parameters: Intact protein LC/MS covalent labelling, fragments in pools of five, 200 uM each, 4 °C; details: 24 h, 4 °C, pool of five; 200 µM; covalent
T4 construct: gene KAT2B
T4 sequence (Q92831 whole entry, the tested form may be a part): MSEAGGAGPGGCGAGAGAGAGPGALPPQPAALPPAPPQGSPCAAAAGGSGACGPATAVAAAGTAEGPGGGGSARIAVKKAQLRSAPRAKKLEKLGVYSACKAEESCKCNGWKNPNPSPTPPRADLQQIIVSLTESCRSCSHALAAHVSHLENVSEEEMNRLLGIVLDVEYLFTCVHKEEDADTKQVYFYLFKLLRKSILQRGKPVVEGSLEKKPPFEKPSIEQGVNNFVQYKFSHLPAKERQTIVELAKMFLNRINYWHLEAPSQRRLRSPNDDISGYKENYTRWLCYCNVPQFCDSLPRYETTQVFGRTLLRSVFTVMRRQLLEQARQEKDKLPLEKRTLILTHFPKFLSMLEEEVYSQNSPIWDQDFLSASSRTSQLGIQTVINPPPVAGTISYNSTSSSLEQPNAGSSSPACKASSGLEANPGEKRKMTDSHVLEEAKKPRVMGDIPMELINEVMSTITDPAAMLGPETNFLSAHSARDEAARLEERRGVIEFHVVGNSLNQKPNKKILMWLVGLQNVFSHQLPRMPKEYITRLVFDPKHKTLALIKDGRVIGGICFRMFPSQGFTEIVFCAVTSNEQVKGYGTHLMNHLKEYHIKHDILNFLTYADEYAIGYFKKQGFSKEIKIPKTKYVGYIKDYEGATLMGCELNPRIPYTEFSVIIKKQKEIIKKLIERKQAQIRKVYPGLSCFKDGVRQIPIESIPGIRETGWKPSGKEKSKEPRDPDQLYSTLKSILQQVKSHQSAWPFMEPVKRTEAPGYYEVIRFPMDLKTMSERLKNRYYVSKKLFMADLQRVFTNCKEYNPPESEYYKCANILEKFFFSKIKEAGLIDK

in vitro [1] = assay: in vitro; parameters: species or system CCD841, HEK293; details: human, hb2 cells, read-out: HB-2 Cells Viability (%)
in vitro [2] = assay: in vitro; parameters: species or system HB2, HEK293; details: human, ccd841 cells
in vitro [3] = assay: in vitro; parameters: species or system HB2, CCD841; details: human, hek293 cells

T1 sequence (P02769 whole entry, the tested form may be a part): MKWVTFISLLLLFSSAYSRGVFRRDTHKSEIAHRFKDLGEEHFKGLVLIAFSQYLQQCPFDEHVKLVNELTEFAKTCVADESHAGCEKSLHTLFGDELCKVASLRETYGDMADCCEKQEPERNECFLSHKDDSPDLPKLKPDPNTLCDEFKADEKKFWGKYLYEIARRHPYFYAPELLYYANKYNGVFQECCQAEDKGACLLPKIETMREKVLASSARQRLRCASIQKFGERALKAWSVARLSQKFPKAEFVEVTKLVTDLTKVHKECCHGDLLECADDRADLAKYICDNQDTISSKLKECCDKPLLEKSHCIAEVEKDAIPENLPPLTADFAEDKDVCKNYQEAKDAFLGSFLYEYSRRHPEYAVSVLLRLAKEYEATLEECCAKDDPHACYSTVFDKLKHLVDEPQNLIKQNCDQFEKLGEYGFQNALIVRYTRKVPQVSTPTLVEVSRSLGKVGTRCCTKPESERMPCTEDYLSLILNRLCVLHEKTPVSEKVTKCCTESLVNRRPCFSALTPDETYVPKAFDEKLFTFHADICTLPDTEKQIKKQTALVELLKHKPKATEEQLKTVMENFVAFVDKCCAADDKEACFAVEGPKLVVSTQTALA

Compound	BSA (BSA)	NUDT7 (NUDT7)	OTUB2 (OTUB2 (OTUB2A))	PCAF (PCAF)	viability at 48 h, 10 µM (in vitro [1]) [%]	viability at 48 h, 10 µM (in vitro [2]) [%]	viability at 48 h, 10 µM (in vitro [3]) [%]
Cc1cccc(C(=O)O)c1NC(=O)CCl [PCM-0102167]	0	0	0	0	101	102	104
C=CC(=O)N1CCCC(c2ncc3n2CCCC3)C1 (stereo not drawn) [PCM-0103042]	0.11	0	0	0	95.6	108	97.1
O=C(CCl)NNC(=O)c1ccc(F)cc1 [PCM-0102430]	0	0	0.31	0	94.9	93.2	93.4
CCN(C(=O)CCl)C1CCS(=O)(=O)C1 (stereo not drawn) [PCM-0102105]	0	0	0	0	95	68.1	54.9
Cc1ccccc1C(=O)NC1CCN(C(=O)CCl)CC1 [PCM-0103013]	0.1	0	0	0	84.4	76.5	58.4
C=CC(=O)Nc1ccc(Br)cc1 [PCM-0102191]	0	0.09	0	0	91.3	88.9	65.6
CN(C(=O)CCl)c1nc2ccccc2s1 [PCM-0102894]	0	0.34	0	0	88.4	83.6	87.7
C=CC(=O)NC(=O)NC12CC3CC(CC(C3)C1)C2 [PCM-0102106]	0	0.79	0	0	26.6	80.9	42
CC1(c2ccccc2)NC(=O)N(NC(=O)CCl)C1=O (stereo not drawn) [PCM-0102428]	0	0	0	0	91.2	81.4	103
COC(=O)c1cccc(NC(=O)CCl)n1 [PCM-0102977]	0	0	0	0	103	101	105
CN(C(=O)CCl)c1ccc([N+](=O)[O-])cc1 [PCM-0102669]	0	0.14	0	0	12.9	17.3	10.5
CC1CCCCC1N(C)C(=O)CCl (stereo not drawn) [PCM-0103026]	0	0.12	0	0	18.3	57	31.2
O=C(CCl)NC(=O)NC1CCCC1 [PCM-0103001]	0	0	0	0	66.4	80.2	66.7
CC(C)(C)OC(=O)N1CCN(C(=O)CCl)CC1 [PCM-0102786]	0	0	0	0	85.9	84	68.2
CC(C)C(=O)NNC(=O)CCl [PCM-0103014]	0	0	0.09	0	98.8	95.1	126
O=C(CCl)N1CCN(C(=O)c2cccs2)CC1 [PCM-0102306]	0	0	0	0	39.9	63.6	12.9
C=CC(=O)N1CCCC(CC(=O)OC(C)(C)C)CC1 (stereo not drawn) [PCM-0102609]	0	0	0.06	0	106	104	90.6
C=CC(=O)N1CCN(C(=O)c2ccc(Br)o2)CC1 [PCM-0102804]	0	0	0	0	93.5	102	84.7
COC(=O)c1c(NC(=O)CCl)sc2c1CCCCC2 [PCM-0102200]	0	0.11	0	0	49.5	80.8	21.8
Cc1ccc(-c2nnc(C)[nH]2)c(NC(=O)CCl)c1 [PCM-0102775]	0	0.13	0	0	61.1	45	53
O=C(CCl)N1CCN(C(=O)Nc2ccccc2)CC1 [PCM-0102257]	0	0.07	0	0	34.8	56.6	8.5
C=CC(=O)N(C)CC(=O)N1c2ccccc2NC(=O)CC1C (stereo not drawn) [PCM-0102729]	0	0	0	0	104	107	107
CC1CCC(N(C)C(=O)CCl)CC1 (stereo not drawn) [PCM-0103019]	0	0	0	0	39.2	40.7	39.9
C=CC(=O)Nc1ccccc1C(F)(F)F [PCM-0102581]	0	0	0	0	108	121	123
